Measured values: US20230146455A1, “TREATMENT OF INFLAMMATORY DISEASES WITH PEPTIDES AND PHARMACEUTICAL COMPOSITIONS” (Yuyu Pharma, Inc., priority 2020, published 2023)
Several values for one entry are separate records, joined by “and”; a condition that tells them apart may be missing. Equal values may be shown once. Entries after “also recorded” stand apart in the source; their conditions may differ. Where a SMILES comes first, the peptide text is derived from it. [ ]: non-standard residue; d: D form. Hyp = O=C(O)[C@@H]1C[C@@H](O)CN1

System: human PBMCs
Assay: PBMC cell counts (total, live, viability; trypan blue, Countess) with and without LPS and test articles (Example 9)
Type: cell-based
Procedure: Treatment Human PBMCs were pretreated with YY-101, YDE-011 and YDE-043 or reference compound; Xiidra® at various concentration (ranging from 1 nM to 100 uM) for 2 h before stimulation. An equal volume of 0.5% DMSO was used as a vehicle control. Then, the cells were treated with LPS at 5 ug/ml. The supernatants from treated cells were harvested at 24 h and placed in a 96 well for Luminex cytokine & chemokine profiling using a Luminex 200 multiplex assay (Luminex; R&D system, USA).
The main study arm with triplicate wells per group in a 24-well plate: • 1. Blank • 2. PBMC: 0.5% DMSO • 3. PBMC+LPS (5 ug/ml) • 4. PBMC+YY-101 100 uM • 5. PBMC+YY-101 10 uM • 6. PBMC+YY-101 1 uM • 7. PBMC+YY-101 0.1 uM • 8. PBMC+YY-101 0.01 uM • 9. PBMC+LPS (5 ug/ml)+Xiidra®100 uM • 10. PBMC+LPS (5 ug/ml)+Xiidra® 10 uM • 11. PBMC+LPS (5 ug/ml)+Xiidra® 1 uM • 12. PBMC+LPS (5 ug/ml)+Xiidra®0.1 uM • 13. PBMC+LPS (5 ug/ml)+Xiidra®0.01 uM • 14. PBMC+LPS (5 ug/ml)+Xiidra®0.001 uM • 15. PBMC+LPS (5 ug/ml)+YY-101 100 uM • 16. PBMC+LPS (5 ug/ml)+YY-101 10 uM • 17. PBMC+LPS (5 ug/ml)+YY-101 1 uM • 18. PBMC+LPS (5 ug/ml)+YY-101 0.1 uM • 19. PBMC+LPS (5 ug/ml)+YY-101 0.01 uM • 20. PBMC+LPS (5 ug/ml)+YY-101 0.001 uM • 21. PBMC+LPS (5 ug/ml)+YDE-011 100 uM • 22. PBMC+LPS (5 ug/ml)+YDE-011 10 uM • 23. PBMC+LPS (5 ug/ml)+YDE-011 1 uM • 24. PBMC+LPS (5 ug/ml)+YDE-011 0.1 uM • 25. PBMC+LPS (5 ug/ml)+YDE-011 0.01 uM • 26. PBMC+LPS (5 ug/ml)+YDE-011 0.001 uM • 27. PBMC+LPS (5 ug/ml)+YDE-043 100 uM • 28. PBMC+LPS (5 ug/ml)+YDE-043 10 uM • 29. PBMC+LPS (5 ug/ml)+YDE-043 1 uM • 30. PBMC+LPS (5 ug/ml)+YDE-043 0.1 uM • 31. PBMC+LPS (5 ug/ml)+YDE-043 0.01 uM • 32. PBMC+LPS (5 ug/ml)+YDE-043 0.001 uM
The number of PBMCs was measured after 24 hr of treatment. The culture both and trypan blue were diluted 1:1 and 10 ul was added to Countess cell counting chamber (Thermo fisher, USA). The number of PBMCs was measured using a Countess automated cell counter (Thermo fisher, USA).

[1] = PBMC + LPS(5 ug/ml), test article 100 uM, Mean
[2] = PBMC + LPS(5 ug/ml), test article 100 uM, single replicates
[3] = PBMC + compound 0.01 uM, no LPS, 24 hr
[4] = PBMC + compound 0.1 uM, no LPS, 24 hr
[5] = PBMC + compound 1 uM, no LPS, 24 hr
[6] = PBMC + compound 10 uM, no LPS, 24 hr
[7] = PBMC + compound 100 uM, no LPS, 24 hr
[8] = PBMC + test article 0.01 uM, no LPS, Mean
[9] = PBMC + test article 0.01 uM, no LPS, single replicates
[10] = PBMC + test article 0.1 uM, no LPS, Mean
[11] = PBMC + test article 0.1 uM, no LPS, single replicates
[12] = PBMC + test article 1 uM, no LPS, Mean
[13] = PBMC + test article 1 uM, no LPS, single replicates
[14] = PBMC + test article 10 uM, no LPS, Mean
[15] = PBMC + test article 10 uM, no LPS, single replicates
[16] = PBMC + test article 100 uM, no LPS, Mean
[17] = PBMC + test article 100 uM, no LPS, single replicates
[18] = PBMC without LPS, test article 0.01 uM, Mean
[19] = PBMC without LPS, test article 0.01 uM, single replicates
[20] = PBMC without LPS, test article 0.1 uM, Mean
[21] = PBMC without LPS, test article 0.1 uM, single replicates
[22] = PBMC without LPS, test article 1 uM, Mean
[23] = PBMC without LPS, test article 1 uM, single replicates
[24] = PBMC without LPS, test article 10 uM, Mean
[25] = PBMC without LPS, test article 10 uM, single replicates
[26] = PBMC without LPS, test article 100 uM, Mean
[27] = PBMC without LPS, test article 100 uM, single replicates

CC(C)C[C@H](NC(=O)CNC(=O)[C@H](CC(=O)O)NC(=O)[C@H](CCC(N)=O)NC(=O)CNC(=O)[C@@H]1C[C@@H](O)CN1)C(=O)N[C@@H](C)C(=O)NCC(=O)N1CCC[C@H]1C(=O)N[C@@H](CCCCN)C(=O)O [YY-101] (H-[Hyp]GQDGLAGPK-OH; N-terminus and C-terminus assumed)
Live cell [1]: 5.8 10^5/ml
Total cell count [1]: 7.8 10^5/ml
Live cell [2]: 6.3 10^5/ml and 6.2 10^5/ml and 5.0 10^5/ml
Total cell count [2]: 8.7 10^5/ml and 8.8 10^5/ml and 5.8 10^5/ml
Viability [2]: 73.0% and 70.0% and 87.0%
Live cell [3]: 5.0 ± 0.2 10^5/ml
Total cell [3]: 5.9 ± 0.4 10^5/ml
Live cell [4]: 5.1 ± 0.2 10^5/ml
Total cell [4]: 6.1 ± 0.8 10^5/ml
Live cell [5]: 5.5 ± 0.0 10^5/ml
Total cell [5]: 6.1 ± 0.2 10^5/ml
Live cell [6]: 6.3 ± 0.2 10^5/ml
Total cell [6]: 7.4 ± 0.3 10^5/ml
Live cell [7]: 6.7 ± 0.3 10^5/ml
Total cell [7]: 7.8 ± 0.5 10^5/ml
Live cell [8]: 5.0 10^5/ml
Live cell (10^5/ml) [8]: 5.0 10^5/ml
Live cell, Mean [8]: 5.0 10^5/ml
Live cell (PBMC + test article 0.01 uM, no LPS, individual replicates (1st, 2nd)): 5.2 10^5/ml and 4.8 10^5/ml
Live cell [9]: 5.2 10^5/ml and 4.8 10^5/ml
Live cell (10^5/ml) [9]: 5.2 10^5/ml and 4.8 10^5/ml
Live cell (PBMC + test article 0.01 uM, no LPS, single replicates (1st, 2nd)): 5.2 10^5/ml and 4.8 10^5/ml
Live cell [10]: 5.1 10^5/ml
Live cell (10^5/ml) [10]: 5.1 10^5/ml
Live cell, Mean [10]: 5.1 10^5/ml
Live cell (PBMC + test article 0.1 uM, no LPS, individual replicates (1st, 2nd)): 4.4 10^5/ml and 5.8 10^5/ml
Live cell [11]: 4.4 10^5/ml and 5.8 10^5/ml
Live cell (10^5/ml) [11]: 4.4 10^5/ml and 5.8 10^5/ml
Live cell (PBMC + test article 0.1 uM, no LPS, single replicates (1st, 2nd)): 4.4 10^5/ml and 5.8 10^5/ml
Live cell [12]: 5.5 10^5/ml
Live cell (10^5/ml) [12]: 5.5 10^5/ml
Live cell, Mean [12]: 5.5 10^5/ml
Live cell (PBMC + test article 1 uM, no LPS, individual replicates (1st, 2nd)): 5.5 10^5/ml
Live cell [13]: 5.5 10^5/ml
Live cell (10^5/ml) [13]: 5.5 10^5/ml
Live cell (PBMC + test article 1 uM, no LPS, single replicates (1st, 2nd)): 5.5 10^5/ml
Live cell [14]: 6.3 10^5/ml
Live cell (10^5/ml) [14]: 6.3 10^5/ml
Live cell, Mean [14]: 6.3 10^5/ml
Live cell (PBMC + test article 10 uM, no LPS, individual replicates (1st, 2nd)): 6.4 10^5/ml and 6.1 10^5/ml
Live cell [15]: 6.4 10^5/ml and 6.1 10^5/ml
Live cell (10^5/ml) [15]: 6.4 10^5/ml and 6.1 10^5/ml
Live cell (PBMC + test article 10 uM, no LPS, single replicates (1st, 2nd)): 6.4 10^5/ml and 6.1 10^5/ml
Live cell [16]: 6.7 10^5/ml
Live cell (10^5/ml) [16]: 6.7 10^5/ml
Live cell, Mean [16]: 6.7 10^5/ml
Live cell (PBMC + test article 100 uM, no LPS, individual replicates (1st, 2nd)): 6.4 10^5/ml and 7.0 10^5/ml
Live cell [17]: 6.4 10^5/ml and 7.0 10^5/ml
Live cell (10^5/ml) [17]: 6.4 10^5/ml and 7.0 10^5/ml
Live cell (PBMC + test article 100 uM, no LPS, single replicates (1st, 2nd)): 6.4 10^5/ml and 7.0 10^5/ml
Live cell (PBMC without LPS, 0.01 uM, Mean): 5.0 10^5/ml
Live cell (PBMC without LPS, 0.01 uM, single replicates): 5.2 10^5/ml and 4.8 10^5/ml
Live cell (PBMC without LPS, 0.1 uM, Mean): 5.1 10^5/ml
Live cell (PBMC without LPS, 0.1 uM, single replicates): 4.4 10^5/ml and 5.8 10^5/ml
Live cell (PBMC without LPS, 1 uM, Mean): 5.5 10^5/ml
Live cell (PBMC without LPS, 1 uM, single replicates): 5.5 10^5/ml
Live cell (PBMC without LPS, 10 uM, Mean): 6.3 10^5/ml
Live cell (PBMC without LPS, 10 uM, single replicates): 6.4 10^5/ml and 6.1 10^5/ml
Live cell (PBMC without LPS, 100 uM, Mean): 6.7 10^5/ml
Live cell (PBMC without LPS, 100 uM, single replicates): 6.4 10^5/ml and 7.0 10^5/ml
Live cell [18]: 5.0 10^5/ml
Total cell count [18]: 5.9 10^5/ml
Live cell [19]: 5.2 10^5/ml and 4.8 10^5/ml
Total cell count [19]: 6.3 10^5/ml and 5.5 10^5/ml
Viability [19]: 83.0% and 87.0%
Live cell [20]: 5.1 10^5/ml
Total cell count [20]: 6.1 10^5/ml
Viability [20]: 84.0%
Live cell [21]: 4.4 10^5/ml and 5.8 10^5/ml
Total cell count [21]: 5.2 10^5/ml and 6.9 10^5/ml
Viability [21]: 84.0%
Live cell [22]: 5.5 10^5/ml
Total cell count [22]: 6.1 10^5/ml
Live cell [23]: 5.5 10^5/ml
Total cell count [23]: 5.9 10^5/ml and 6.3 10^5/ml
Viability [23]: 92.0% and 87.0%
Live cell [24]: 6.3 10^5/ml
Total cell count [24]: 7.4 10^5/ml
Live cell [25]: 6.4 10^5/ml and 6.1 10^5/ml
Total cell count [25]: 7.6 10^5/ml and 7.1 10^5/ml
Viability [25]: 85.0% and 87.0%
Live cell [26]: 6.7 10^5/ml
Total cell count [26]: 7.8 10^5/ml
Live cell [27]: 6.4 10^5/ml and 7.0 10^5/ml
Total cell count [27]: 7.3 10^5/ml and 8.2 10^5/ml
Viability [27]: 88.0% and 85.0%
viability / total number of PBMCs (in words) (up to 100 μM): didn't affect the basal levels of most of cytokine/chemokine production or the viability of hPBMCs; also recorded: didn't affect any viability or the total number of PBMCs
which treatments consistently affected the total and live number of PBMCs or the percent viability (in words) (up to 100 μM, 24-hour treatment): none of
